Measurements published in ChEMBL document CHEMBL5723585, “Data for DCP probe JNJ-54082730” (2024).

Experiments:
[1] = biological target: cGMP-dependent 3',5'-cyclic phosphodiesterase (Homo sapiens, UniProt O00408); assay: Scintillation proximity assay (PDE2A) ( Mean (95% Confidence Interval) = 0.8 -1 nM; Ki = 0.7 nM)
[2] = biological target: cGMP-dependent 3',5'-cyclic phosphodiesterase (Rattus norvegicus) (UniProt Q01062); assay: Target occupancy in striatum ( p.o.dose, 1 h); type: organism-based
cGMP-dependent 3',5'-cyclic phosphodiesterase (Rattus norvegicus), sequence (Q01062 whole entry): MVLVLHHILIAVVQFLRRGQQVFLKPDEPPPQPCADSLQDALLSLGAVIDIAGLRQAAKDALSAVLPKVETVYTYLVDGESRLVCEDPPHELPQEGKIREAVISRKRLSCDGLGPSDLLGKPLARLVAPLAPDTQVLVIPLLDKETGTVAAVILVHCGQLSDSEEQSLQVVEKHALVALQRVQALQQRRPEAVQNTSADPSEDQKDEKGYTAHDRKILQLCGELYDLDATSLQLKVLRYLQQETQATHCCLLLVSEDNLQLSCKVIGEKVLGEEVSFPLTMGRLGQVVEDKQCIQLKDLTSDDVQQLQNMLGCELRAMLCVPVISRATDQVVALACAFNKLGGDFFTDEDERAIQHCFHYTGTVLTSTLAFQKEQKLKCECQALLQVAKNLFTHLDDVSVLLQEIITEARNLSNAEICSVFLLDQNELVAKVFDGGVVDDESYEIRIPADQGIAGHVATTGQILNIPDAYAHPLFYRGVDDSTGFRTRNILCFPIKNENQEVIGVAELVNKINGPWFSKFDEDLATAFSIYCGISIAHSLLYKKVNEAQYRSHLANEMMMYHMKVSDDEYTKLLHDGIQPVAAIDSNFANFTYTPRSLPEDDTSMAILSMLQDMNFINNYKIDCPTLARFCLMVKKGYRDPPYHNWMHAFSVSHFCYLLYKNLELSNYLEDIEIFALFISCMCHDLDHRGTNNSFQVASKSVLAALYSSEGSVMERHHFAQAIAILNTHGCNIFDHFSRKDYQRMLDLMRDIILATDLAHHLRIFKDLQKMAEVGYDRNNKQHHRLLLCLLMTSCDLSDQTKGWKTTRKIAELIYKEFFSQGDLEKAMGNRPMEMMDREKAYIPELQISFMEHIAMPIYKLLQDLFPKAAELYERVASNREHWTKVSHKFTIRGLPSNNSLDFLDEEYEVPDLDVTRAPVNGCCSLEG

[3] = biological target: cAMP and cAMP-inhibited cGMP 3',5'-cyclic phosphodiesterase 10A (Homo sapiens, UniProt Q9Y233); assay: Scintillation proximity assay (PDE10A)
cAMP and cAMP-inhibited cGMP 3',5'-cyclic phosphodiesterase 10A, sequence (Q9Y233 whole entry): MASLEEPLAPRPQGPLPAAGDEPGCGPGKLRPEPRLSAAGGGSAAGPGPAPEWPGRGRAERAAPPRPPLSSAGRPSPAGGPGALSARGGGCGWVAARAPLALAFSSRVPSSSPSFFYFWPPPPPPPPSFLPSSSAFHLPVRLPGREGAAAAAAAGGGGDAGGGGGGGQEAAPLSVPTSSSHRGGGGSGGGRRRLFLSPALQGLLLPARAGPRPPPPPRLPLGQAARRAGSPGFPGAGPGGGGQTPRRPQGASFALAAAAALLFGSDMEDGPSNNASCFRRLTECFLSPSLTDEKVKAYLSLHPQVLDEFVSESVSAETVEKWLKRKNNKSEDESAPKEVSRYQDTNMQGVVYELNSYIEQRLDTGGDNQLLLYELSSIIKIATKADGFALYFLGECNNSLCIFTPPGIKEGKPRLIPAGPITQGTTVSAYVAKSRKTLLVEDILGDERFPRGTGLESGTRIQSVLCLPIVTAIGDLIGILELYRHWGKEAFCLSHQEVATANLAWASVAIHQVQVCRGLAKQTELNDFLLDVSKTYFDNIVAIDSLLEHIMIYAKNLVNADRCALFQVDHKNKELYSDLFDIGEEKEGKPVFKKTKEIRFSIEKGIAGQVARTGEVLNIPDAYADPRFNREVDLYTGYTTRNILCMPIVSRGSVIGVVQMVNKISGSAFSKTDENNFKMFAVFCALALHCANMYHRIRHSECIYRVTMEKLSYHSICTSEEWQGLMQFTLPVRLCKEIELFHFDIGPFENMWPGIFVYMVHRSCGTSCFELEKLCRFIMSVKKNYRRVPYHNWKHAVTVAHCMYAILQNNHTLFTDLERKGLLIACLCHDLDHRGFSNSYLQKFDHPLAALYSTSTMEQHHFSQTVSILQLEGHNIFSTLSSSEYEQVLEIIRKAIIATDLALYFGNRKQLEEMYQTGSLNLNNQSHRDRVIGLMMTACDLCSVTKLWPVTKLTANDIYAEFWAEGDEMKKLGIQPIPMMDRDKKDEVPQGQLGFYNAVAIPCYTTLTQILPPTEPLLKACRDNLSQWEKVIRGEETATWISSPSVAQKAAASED

[4] = biological target: Phosphodiesterase 3 (Homo sapiens, UniProt Q14432+Q13370); assay: Scintillation proximity assay (PDE3); type: protein assay

cGMP-dependent 3',5'-cyclic phosphodiesterase, sequence (O00408 whole entry): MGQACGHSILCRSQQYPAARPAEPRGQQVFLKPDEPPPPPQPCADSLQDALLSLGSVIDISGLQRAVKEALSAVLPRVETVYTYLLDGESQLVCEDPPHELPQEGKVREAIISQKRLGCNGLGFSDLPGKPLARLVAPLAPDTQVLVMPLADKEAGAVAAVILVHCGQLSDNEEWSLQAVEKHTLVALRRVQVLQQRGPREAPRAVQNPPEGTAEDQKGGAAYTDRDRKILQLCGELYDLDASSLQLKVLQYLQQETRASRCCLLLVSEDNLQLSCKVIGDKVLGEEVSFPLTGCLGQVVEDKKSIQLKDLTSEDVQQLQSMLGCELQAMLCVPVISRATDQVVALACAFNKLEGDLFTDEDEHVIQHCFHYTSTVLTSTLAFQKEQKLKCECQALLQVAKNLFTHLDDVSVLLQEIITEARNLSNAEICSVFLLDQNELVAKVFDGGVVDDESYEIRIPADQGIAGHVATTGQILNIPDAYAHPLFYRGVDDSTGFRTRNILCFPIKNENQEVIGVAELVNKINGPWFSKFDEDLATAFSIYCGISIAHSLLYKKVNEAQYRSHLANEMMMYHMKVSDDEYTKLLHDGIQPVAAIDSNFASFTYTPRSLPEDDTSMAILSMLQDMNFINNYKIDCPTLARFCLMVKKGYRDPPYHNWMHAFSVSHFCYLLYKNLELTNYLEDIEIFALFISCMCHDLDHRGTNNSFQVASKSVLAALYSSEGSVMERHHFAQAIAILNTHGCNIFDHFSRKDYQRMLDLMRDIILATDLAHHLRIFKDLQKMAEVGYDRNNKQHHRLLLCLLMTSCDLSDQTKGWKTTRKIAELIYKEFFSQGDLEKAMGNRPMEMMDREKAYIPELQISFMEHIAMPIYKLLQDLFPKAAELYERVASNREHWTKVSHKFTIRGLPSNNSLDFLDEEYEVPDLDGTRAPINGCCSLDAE

IC50 [1]: 97 nM (not active) | ED50 [2]: > 80 mg/kg | IC50 [3]: > 10 µM (not active) | IC50 [4]: > 10 µM
SMILES: Cc1cc(C(=O)N2CC[C@H](C)[C@@H](c3cc(C(F)F)nc4ncnn34)C2)cc(C)n1
